In the NIST ThermoML archive (doi:10.1016/j.jct.2014.12.008):
± gives the expanded uncertainty stated by the source.

Conditions: Liquid, Closed cell (Static) method

| Structure (SMILES) | vapor or sublimation pressure (273.15 K) [kPa] | vapor or sublimation pressure (283.15 K) [kPa] | vapor or sublimation pressure (293.15 K) [kPa] | vapor or sublimation pressure (303.15 K) [kPa] | vapor or sublimation pressure (313.15 K) [kPa] | vapor or sublimation pressure (323.15 K) [kPa] | vapor or sublimation pressure (333.15 K) [kPa] | vapor or sublimation pressure (343.15 K) [kPa] | vapor or sublimation pressure (353.15 K) [kPa] | vapor or sublimation pressure (363.15 K) [kPa] |
| --- | --- | --- | --- | --- | --- | --- | --- | --- | --- | --- |
| CC(CN)CCCN (stereo not given) [2-methyl-1,5-pentanediamine] | 0.004 ± 0.001 | 0.011 ± 0.001 | 0.028 ± 0.002 | 0.065 ± 0.005 | 0.137 ± 0.009 | 0.274 ± 0.017 | 0.519 ± 0.033 | 0.934 ± 0.024 | 1.611 ± 0.022 | 2.67 ± 0.028 |
| CCC(N)CCN (stereo not given) [1,3-pentanediamine] | 0.026 ± 0.002 | 0.064 ± 0.005 | 0.144 ± 0.01 | 0.299 ± 0.019 | 0.585 ± 0.037 | 1.081 ± 0.028 | 1.902 ± 0.023 | 3.206 ± 0.032 | 5.201 ± 0.045 | 8.153 ± 0.065 |
